# From the supplement of paper PMC11208160
# Assay: recombinant barcode read abundance after kanamycin selection (control-corrected) (log10(CPM+1)); higher = more efficient recombination; sequences stand for … in AGTGCAGAGAAAATCGGCCAGTTTTCTCTGCCTGCAGTCCGCATGCCGT…AGATTTATGCAGCGGACTGCCTTTCTCCCAAAGTGATAAACCGGACAGTATCATGGACCGGTTTTCCCGGTAATCCGTATTTGCAAGGTTGGTTTCACT; site = the 11-nt target
# Summary of the method: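 Targets were screened in pooled form in E. coli against IS621 bridge RNA target-binding loops. Recombination efficiency is based on barcode counts at recombinant junctions in counts per million, averaged and corrected for the control. Numbers are shown as log10(CPM+1), with duplicate plates on chloramphenicol/ampicillin LB agar (control) or chloramphenicol/ampicillin/kanamycin with 0.1 mM IPTG.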
# 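Also: IS621 recombinase and bridge RNA in Escherichia coli cells.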
row,Sequence,recombinant barcode read abundance (log10)
1,TACATCCCTTGGGTTCTAACCTGTTGCCG (site TACATCCCTCG),0.623
2,GGACACTCTTGGGTTCTAACCTGTTGCCT (site GGACACTCTAG),2.75
3,GGAGACGCTTGGGTTCTAACCTGTTGCCT (site GGAGATGCTAG),0.235
4,ATCCTAGCTTGGGTTCTAACCTGTTGCCG (site TTCCTAGCTTG),0.299
5,TTAGACTCTTGGGTTCTAACCTGTTGCCA (site TTAGACTCTTG),1.06
6,GAGGTATCTTGGGTTCTAACCTGTTGCTA (site GAGGTATCTAA),0.201
7,TCCTATGCTTGGGTTCTAACCTGTTGCCG (site TCCTATGCTCG),0.444
8,AACGCCACTTGGGTTCTAACCTGTTGCCT (site GACGCCACTAG),0.0328
9,GACTTACCTTGGGTTCTAACCTGTTGCAT (site GACTTTCCTAT),0.124
10,GAGTTGCCTTGGGTTCTAACCTGTTGCCT (site GGGTTGCCTAG),0.0448
11,GCCGATCCTTGGGTTCTAACCTGTTGCCT (site GGCGATCCTAG),0.205
12,AAGATGTCTTGGGTTCTAACCTGTTGCTG (site AAGATGTCTCA),1.74
13,TCCCATCCTTGGGTTCTAACCTGTTGCGT (site TCCTATCCTAC),0.0583
14,GTAGCCACTTGGGTTCTAACCTGTTGCCT (site GTCGCCACTAG),0.449
15,ACTCTACCTTGGGTTCTAACCTGTTGCTA (site ACTCTACCTTA),1.12
16,CAGCGAGCTTGGGTTCTAACCTGTTGCCG (site CACCGAGCTCG),0.117
17,AGGTGTCCTTGGGTTCTAACCTGTTGCTT (site CGGTGTCCTAA),0.0102
18,GACTCTCCTTGGGTTCTAACCTGTTGCTG (site GACTCTCCTCT),0.0367
19,AGTTCGACTTGGGTTCTAACCTGTTGCCT (site ATTTCGACTAG),0.234
20,ATAGGTTCTTGGGTTCTAACCTGTTGCCT (site AAAGGTTCTAG),0.0456
21,CAAAGCCCTTGGGTTCTAACCTGTTGCCT (site CGGAGCCCTAG),0.349
22,ACGATTCCTTGGGTTCTAACCTGTTGCTT (site ACGAATCCTAA),0.0108

row,Sequence,recombinant barcode read abundance (log10)
1,TGGCATCCTTGGGTTCTAACCTGTTGCGT (site TGGCATCCTAC),2.53
2,ATGCGAGCTTGGGTTCTAACCTGTTGCGG (site ATGCGAGCTCC),1.92
3,GAGCGCTCTTGGGTTCTAACCTGTTGCTT (site GAGCGCTCTAA),1.22
4,CATGACCCTTGGGTTCTAACCTGTTGCCT (site CAAGACCCTAG),0.993
5,GCGCACCCTTGGGTTCTAACCTGTTGCAG (site CTGCACCCTCT),0.0518
6,GGGGAATCTTGGGTTCTAACCTGTTGCAT (site GGGGACTCTGT),0.079
7,CTTAGGGCTTGGGTTCTAACCTGTTGCCT (site CTTTGTGCTAG),0.012
8,TAACGTTCTTGGGTTCTAACCTGTTGCCT (site TAACGTTCTAG),0.385
9,AGGCGCCCTTGGGTTCTAACCTGTTGCAA (site AGGCGCCCTGT),0.0953
10,AAACTAACTTGGGTTCTAACCTGTTGCCT (site AAACTAACTAG),1.31
11,ACGACTGCTTGGGTTCTAACCTGTTGCCT (site ACGACTCCTAG),0.163
12,CACTTCCCTTGGGTTCTAACCTGTTGCTT (site CACTTCCCTAA),1.04
13,CGGATCGCTTGGGTTCTAACCTGTTGCCT (site CGGATAGCTAG),0.079
14,GCGCGAACTTGGGTTCTAACCTGTTGCCT (site GCACGAACTAG),0.733
15,TGGGTCACTTGGGTTCTAACCTGTTGCTA (site TGGGTCACTTA),2.07
16,CCACATCCTTGGGTTCTAACCTGTTGCCT (site GCACACCCTAG),0.109
17,TTGTCTCCTTGGGTTCTAACCTGTTGCCT (site GTGTCTCCTAG),0.109
18,CTGTACTCTTGGGTTCTAACCTGTTGCCT (site CTGTACTCTAG),1.3
19,ACTATAACTTGGGTTCTAACCTGTTGCTT (site ACTGTAACTAA),0.125
20,GAGCGCTCTTGGGTTCTAACCTGTTGCTT (site GAGCGCTCTGA),0.088
21,CTATGTGCTTGGGTTCTAACCTGTTGCGA (site GTATGTGCTTT),0.139
22,TCCGCTTCTTGGGTTCTAACCTGTTGCCT (site TCCGCTTCTAG),0.487

row,Sequence,recombinant barcode read abundance (log10)
1,GACGCGGCTTGGGTTCTAACCTGTTGCCT (site TTGCGAACTCT),0.059
2,CGTGGTCCTTGGGTTCTAACCTGTTGCTT (site CGTGGTCCTAC),0.409
3,CATCCTACTTGGGTTCTAACCTGTTGCAT (site CATCCTACTCG),0.0637
4,GAGCTACCTTGGGTTCTAACCTGTTGCCG (site GAGCTACCTCG),1.11
5,CCTCAGGCTTGGGTTCTAACCTGTTGCCA (site CCTCAGGCTCG),0.0454
6,CCGCCAGCTTGGGTTCTAACCTGTTGCCT (site CCGCCCGCTAG),0.0231
7,ATGGTCACTTGGGTTCTAACCTGTTGCCT (site ACGGTCACTAG),1.18
8,ACATCTCCTTGGGTTCTAACCTGTTGCCT (site TCATCTCCTAG),0.0426
9,TATGTACCTTGGGTTCTAACCTGTTGCCT (site GATGTACCTAG),0.101
10,TACCAGACTTGGGTTCTAACCTGTTGCCT (site TACCCGACTAG),0.033
11,CTAATATCTTGGGTTCTAACCTGTTGCTA (site CTAATATCTTA),0.512
12,AGCAGGACTTGGGTTCTAACCTGTTGCCG (site AGCAGGACTCG),1.17
13,CGTCCGACTTGGGTTCTAACCTGTTGCAT (site CGTTCGACTAT),0
14,TCCAACTCTTGGGTTCTAACCTGTTGCAC (site CATCCTACTAG),0.0443
15,AGAATCCCTTGGGTTCTAACCTGTTGCTA (site GCAATCCCTTA),0.106
16,AACACGACTTGGGTTCTAACCTGTTGCTC (site CCATATGCTAG),0.235
17,CCAGTAACTTGGGTTCTAACCTGTTGCCT (site CCAGTCACTAG),0.137
18,ATAGGTTCTTGGGTTCTAACCTGTTGCCT (site AGAGGTTCTAG),0.0854
19,AGATTTCCTTGGGTTCTAACCTGTTGCAT (site AGATTTCCTAT),0.173
20,ACCGTCCCTTGGGTTCTAACCTGTTGCCG (site ACCGACCCTCG),0.0364
21,GCCCTGCCTTGGGTTCTAACCTGTTGCCT (site GCACTGCCTAG),0.705
22,GACACGCCTTGGGTTCTAACCTGTTGCTT (site GACACGCCTAT),0.0718

row,Sequence,recombinant barcode read abundance (log10)
1,CTAGGAGCTTGGGTTCTAACCTGTTGCTT (site CTAGGAGCTAA),0.924
2,TAGAGCTCTTGGGTTCTAACCTGTTGCTG (site TAGAGCTCTCA),0.75
3,CCTGCGACTTGGGTTCTAACCTGTTGCCT (site CCTGCGACTAG),0.408
4,GGATCGTCTTGGGTTCTAACCTGTTGCCT (site GGTTCCTCTAG),0.0567
5,TAGGCTACTTGGGTTCTAACCTGTTGCAC (site TAGGCTACTCT),0.131
6,AACTCATCTTGGGTTCTAACCTGTTGCCT (site AACTAATCTAG),0.0366
7,GAGCGAGCTTGGGTTCTAACCTGTTGCAT (site GAGGGAGCTAT),0.0637
8,GACATACCTTGGGTTCTAACCTGTTGCCT (site GACTTACCTAG),0.251
9,GAAGAGACTTGGGTTCTAACCTGTTGCCT (site GAAGAGACTAG),1.57
10,GGATCGTCTTGGGTTCTAACCTGTTGCCT (site GGATCGTCTAG),1.44
11,TGGAGCCCTTGGGTTCTAACCTGTTGCAG (site TGGAGCCCTGT),0.336
12,GATCGGACTTGGGTTCTAACCTGTTGCGG (site GATCGGACTCC),1.69
13,TAGGATACTTGGGTTCTAACCTGTTGCGT (site TAGGAGACTAC),0.266
14,CGTGGTCCTTGGGTTCTAACCTGTTGCGT (site CGTGGTCCTAC),2.26
15,ACACAGACTTGGGTTCTAACCTGTTGCGC (site ACAAAGACTGC),0.174
16,TAGGCTACTTGGGTTCTAACCTGTTGCAA (site TAGGCTACTAT),0.144
17,AGGCTTACTTGGGTTCTAACCTGTTGCAG (site AGTCCTACTCT),0.0844
18,AGTAACCCTTGGGTTCTAACCTGTTGCCT (site AGTAACCCTAG),1.22
19,ACATTTCCTTGGGTTCTAACCTGTTGCCT (site AGATTTCCTAG),0.138
20,TATGTGTCTTGGGTTCTAACCTGTTGCCT (site TATGTGTCTAG),2.01
